Source: BindingDB's records for doi:10.7270/Q2CR5RTC (Burnham Center For Chemical Genomics, 2010)

Molecular target: T1, Tyrosine-protein phosphatase non-receptor type 22 (Homo sapiens, UniProt Q9Y2R2)
T1 sequence (Q9Y2R2 whole entry): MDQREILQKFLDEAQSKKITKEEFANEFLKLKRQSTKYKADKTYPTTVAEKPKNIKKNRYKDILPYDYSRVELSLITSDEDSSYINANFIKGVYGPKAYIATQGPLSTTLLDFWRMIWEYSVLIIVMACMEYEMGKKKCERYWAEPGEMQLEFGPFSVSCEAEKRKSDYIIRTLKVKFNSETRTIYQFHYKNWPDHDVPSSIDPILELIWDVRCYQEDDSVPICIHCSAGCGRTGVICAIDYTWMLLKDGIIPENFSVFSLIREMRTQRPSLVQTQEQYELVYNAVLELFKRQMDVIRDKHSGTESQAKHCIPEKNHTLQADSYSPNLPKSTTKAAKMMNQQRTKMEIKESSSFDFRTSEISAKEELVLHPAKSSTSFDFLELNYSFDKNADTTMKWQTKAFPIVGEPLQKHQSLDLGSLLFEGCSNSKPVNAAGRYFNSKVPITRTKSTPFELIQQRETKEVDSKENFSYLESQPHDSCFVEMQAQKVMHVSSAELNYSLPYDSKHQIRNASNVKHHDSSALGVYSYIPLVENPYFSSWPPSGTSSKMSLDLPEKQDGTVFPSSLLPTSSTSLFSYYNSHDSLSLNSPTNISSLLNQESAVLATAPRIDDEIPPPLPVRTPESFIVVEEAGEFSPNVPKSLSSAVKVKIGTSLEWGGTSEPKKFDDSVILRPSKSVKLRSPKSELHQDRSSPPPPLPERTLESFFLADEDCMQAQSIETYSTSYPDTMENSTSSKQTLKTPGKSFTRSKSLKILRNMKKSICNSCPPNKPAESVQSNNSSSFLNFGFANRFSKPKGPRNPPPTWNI
Assay: LYP phosphatase inhibitors, dose response, biochemical, fluorescence intensity, uHTS hits, set 2 (AID 435024)

IC50 | Compound
> 79.4 µM | Cc1ccc(NN=C2C(=O)N(CN3CCOCC3)c3ccccc32)cc1 [(3Z)-3-[(4-methylphenyl)hydrazinylidene]-1-(4-morpholinylmethyl)-2-indolone]
8.58 µM | N=C(NN=Cc1ccc2c(c1)OCO2)Sc1cc(O)n(-c2ccc(C(=O)O)cc2)c1O [4-(3-{[[(2E)-2-(1,3-benzodioxol-5-ylmethylene)hydrazino](imino)methyl]thio}-2,5-dioxopyrrolidin-1-yl)benzoic acid]

Second part, the molecule before the results:

Compound | IC50
CCOC(=O)NC(=O)C(C=Nc1ccc(C)cc1)C(=O)NC(=O)OCC [ethyl 2-{[(ethoxycarbonyl)amino]carbonyl}-3-(4-toluidino)acryloylcarbamate] | > 79.4 µM
O=C1C([N+](=O)[O-])=CC(Br)=CC1/C=N/n1cnnc1 (stereo not given) [MLS000714804] | > 79.4 µM
COC1=CC=CC(/C=N/NC(=O)c2cc3cc([N+](=O)[O-])ccc3s2)C1=O (stereo not given) [SMR000237814] | 13.1 µM
